# Data taken from publication doi:10.1101/2022.07.12.499690v1 (biorxiv, 2022).
# Molecular target: PD-L1 (Homo sapiens, UniProt Q9NZQ7)
# Test: bio-affinity ultrafiltration, UPLC-HRMS
# Type: binding
# Details: […] h incubation with compound; denatured PD-L1 as control
# PD-L1, sequence (Q9NZQ7 19-290): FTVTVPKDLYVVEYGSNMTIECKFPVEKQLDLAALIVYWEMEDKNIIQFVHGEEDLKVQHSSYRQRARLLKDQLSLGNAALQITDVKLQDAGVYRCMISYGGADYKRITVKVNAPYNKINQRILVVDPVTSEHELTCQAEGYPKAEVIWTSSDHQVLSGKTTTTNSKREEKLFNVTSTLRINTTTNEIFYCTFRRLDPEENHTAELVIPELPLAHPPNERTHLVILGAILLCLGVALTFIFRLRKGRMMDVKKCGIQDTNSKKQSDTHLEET
smiles,measurement,value
NCCc1c[nH]c2ccccc12 [tryptamine],relative peak area enhancement,40.98%
